Experimental findings from patent US20230339937A1, “CONDENSED RING COMPOUNDS THAT INHIBIT H-PGDS” (SATO PHARMACEUTICAL CO., LTD., priority 2020, published 2023) are described below.

This assay has as its target T1, Recombinant human H-PGDS (Homo sapiens, UniProt O60760).
T1 construct: made in house; host or cells: E. coli
The experiment in a line: H-PGDS inhibitory activity (prostaglandin D2 production from prostaglandin H2, measured by LC-MS/MS). The assay is classed as biochemical. As to conditions: recombinant human H-PGDS 1.0 nM expressed in E. coli; prostaglandin H2 25 μM; preincubated 15 minutes on ice, reacted on ice for 1 minute; concentration that inhibits prostaglandin D2 production by 50%. The gist of the method: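 Recombinant human H-PGDS (E. coli-expressed, 1.0 nM final) preincubated with compound 15 min on ice in 20 mM Tris-HCl pH 8.0, 2 mM MgCl2, 2 mM GSH, 0.5 mg/mL γ-globulin. Reaction with 25 µM PGH2 run 1 min on ice, stopped with FeCl2/citric acid, PGD2 quantified by LC-MS/MS. Activity expressed as % of DMSO control after subtracting non-enzymatic PGD2.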

T1 sequence (O60760 whole entry): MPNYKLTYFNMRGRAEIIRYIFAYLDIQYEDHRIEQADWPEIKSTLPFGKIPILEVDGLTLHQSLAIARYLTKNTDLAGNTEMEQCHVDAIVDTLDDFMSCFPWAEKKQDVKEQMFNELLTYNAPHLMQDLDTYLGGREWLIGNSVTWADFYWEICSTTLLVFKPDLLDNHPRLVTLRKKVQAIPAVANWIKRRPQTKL

For orientation: IC50 means the midpoint of a concentration-inhibition curve. `CC[C@]1(O)CC[C@H](NC(=O)c2ccc(-c3nccc4occc34)cc2)CC1` [Example 289, N-(trans-4-ethyl-4-hydroxycyclohexyl)-4-(furo[3,2-c]pyridin-4-yl)benzamide]: the IC50 was determined as 1.6 nM.

On to `CC[C@]1(O)CC[C@@H](NC(=O)c2ccc(-c3nccc4occc34)cc2)CC1` [Example 290, N-(cis-4-ethyl-4-hydroxycyclohexyl)-4-(furo[3,2-c]pyridin-4-yl)benzamide], for which the concentration for half-maximal inhibition (IC50) is 1.3 nM.

Turning to `O=C(N[C@H]1CC[C@](O)(C2CC2)CC1)c1ccc(-c2nccc3occc23)cc1` [Example 291, N-(cis-4-cyclopropyl-4-hydroxycyclohexyl)-4-(furo[3,2-c]pyridin-4-yl)benzamide], the IC50 turned out to be 2.4 nM.

For `CC(C)[C@]1(O)CC[C@@H](NC(=O)c2ccc(-c3nccc4occc34)cc2)CC1` [Example 292, 4-(furo[3,2-c]pyridin-4-yl)-N-(cis-4-hydroxy-4-isopropylcyclohexyl)benzamide], the IC50 stood at 1.9 nM.

Turning to `O=C(N[C@H]1CC[C@H](NCC(F)F)CC1)c1ccc(-c2nccc3occc23)cc1` [Example 294, N-{trans-4-[(2,2-difluoroethyl)amino]cyclohexyl}-4-(furo[3,2-c]pyridin-4-yl)benzamide], the IC50 is 1.1 nM.

Regarding `O=C(N[C@H]1CC[C@H](NC2COC2)CC1)c1ccc(-c2nccc3occc23)cc1` [Example 295, 4-(furo[3,2-c]pyridin-4-yl)-N-[trans-4-(oxetan-3-ylamino)cyclohexyl]benzamide], the IC50 is 2.1 nM.

In the case of `CC(=O)N[C@H]1CC[C@H](NC(=O)c2ccc(-c3nccc4occc34)cc2)CC1` [Example 296, N-(trans-4-acetamidocyclohexyl)-4-(furo[3,2-c]pyridin-4-yl)benzamide], the IC50 is 2.9 nM.

For `Cc1nnnn1[C@H]1CC[C@H](NC(=O)c2ccc(-c3nccc4occc34)cc2)CC1` [Example 297, 4-(furo[3,2-c]pyridin-4-yl)-N-[trans-4-(5-methyl-1H-tetrazol-1-yl)cyclohexyl]benzamide], the IC50 stood at 1.9 nM.

For the compound `CCC(=O)N[C@H]1CC[C@H](NC(=O)c2ccc(-c3nccc4occc34)cc2)CC1` [Example 298, 4-(furo[3,2-c]pyridin-4-yl)-N-(trans-4-propionamidocyclohexyl)benzamide], the IC50 was determined as 3.4 nM.

With `O=C(N[C@H]1CC[C@H](N2CCCC2=O)CC1)c1ccc(-c2nccc3occc23)cc1` [Example 299, 4-(furo[3,2-c]pyridin-4-yl)-N-[trans-4-(2-oxopyrrolidin-1-yl)cyclohexyl]benzamide], the IC50 turned out to be 4 nM.

For the compound `O=C(N[C@H]1CC[C@H](N2CCCCC2=O)CC1)c1ccc(-c2nccc3occc23)cc1` [Example 300, 4-(furo[3,2-c]pyridin-4-yl)-N-[trans-4-(2-oxopiperidin-1-yl)cyclohexyl]benzamide], the IC50 came out at 4.7 nM.

Take `COCCN[C@H]1CC[C@H](NC(=O)c2ccc(-c3nccc4occc34)cc2)CC1` [Example 301, 4-(furo[3,2-c]pyridin-4-yl)-N-{trans-4-[(2-methoxyethyl)amino]cyclohexyl}benzamide]: the concentration for half-maximal inhibition (IC50) was found to be 11 nM.

For the compound `CC(N[C@H]1CC[C@H](NC(=O)c2ccc(-c3nccc4occc34)cc2)CC1)C(F)F` (stereo partly drawn) [Example 302, N-{trans-4-[(1,1-difluoropropan-2-yl)amino]cyclohexyl}-4-(furo[3,2-c]pyridin-4-yl)benzamide], the IC50 was 3.2 nM.

For the compound `O=C1CCC(NC(=O)c2ccc(-c3nccc4occc34)cc2)CC1` [Example 303, 4-(furo[3,2-c]pyridin-4-yl)-N-(4-oxocyclohexyl)benzamide], the IC50 is 2.1 nM.

With `O=C(N[C@H]1CC[C@H](N2CC(F)(F)C2)CC1)c1ccc(-c2nccc3occc23)cc1` [Example 304, N-[trans-4-(3,3-difluoroazetidin-1-yl)cyclohexyl]-4-(furo[3,2-c]pyridin-4-yl)benzamide], the 50% inhibitory concentration (IC50) worked out at 9.2 nM.

`O=C(N[C@H]1CC[C@H](N2CCOCC2)CC1)c1ccc(-c2nccc3occc23)cc1` [Example 305, 4-(furo[3,2-c]pyridin-4-yl)-N-(trans-4-morpholinocyclohexyl)benzamide]: the IC50 came out at 55 nM.

Turning to `O=C(N[C@H]1CC[C@H](N2CCC(F)(F)C2)CC1)c1ccc(-c2nccc3occc23)cc1` [Example 306, N-[trans-4-(3,3-difluoropyrrolidin-1-yl)cyclohexyl]-4-(furo[3,2-c]pyridin-4-yl)benzamide], the IC50 stood at 1.8 nM.

On to `O=C(NC1CCC(N2CCC(F)(F)CC2)CC1)c1ccc(-c2nccc3occc23)cc1` (stereo not drawn) [Example 307, N-[4-(4,4-difluoropiperidin-1-yl)cyclohexyl]-4-(furo[3,2-c]pyridin-4-yl)benzamide], for which the IC50 was found to be 2.2 nM.

As for `CCC(O)[C@H]1CC[C@H](NC(=O)c2ccc(-c3nccc4occc34)cc2)CC1` (stereo partly drawn) [Example 308, 4-(furo[3,2-c]pyridin-4-yl)-N-[trans-4-(1-hydroxypropyl)cyclohexyl]benzamide], the IC50 came to 1.5 nM.

Take `O=C(N[C@H]1CC[C@H](C(O)C(F)(F)F)CC1)c1ccc(-c2nccc3occc23)cc1` (stereo partly drawn) [Example 309, 4-(furo[3,2-c]pyridin-4-yl)-N-[trans-4-(2,2,2-trifluoro-1-hydroxyethyl)cyclohexyl]benzamide]: the IC50 turned out to be 1.9 nM.

`O=C(N[C@H]1CC[C@H](C(F)F)CC1)c1ccc(-c2nccc3occc23)cc1` [Example 310, N-[trans-4-(difluoromethyl)cyclohexyl]-4-(furo[3,2-c]pyridin-4-yl)benzamide]: the IC50 amounted to 2.6 nM.

`COCCO[C@H]1CC[C@H](NC(=O)c2ccc(-c3nccc4occc34)cc2)CC1` [Example 311, 4-(furo[3,2-c]pyridin-4-yl)-N-[trans-4-(2-methoxyethoxy)cyclohexyl]benzamide]: the concentration for half-maximal inhibition (IC50) worked out at 2.5 nM.

Regarding `CC(C)(O)[C@H]1CC[C@H](NC(=O)c2ccc(-c3nc(Cl)cc4occc34)cc2)CC1` [Example 312, 4-(6-chlorofuro[3,2-c]pyridin-4-yl)-N-[trans-4-(2-hydroxypropan-2-yl)cyclohexyl]benzamide], the IC50 turned out to be 1.8 nM.

Consider `C=Cc1cc2occc2c(-c2ccc(C(=O)N[C@H]3CC[C@H](C(C)(C)O)CC3)cc2)n1` [Example 313, N-[trans-4-(2-hydroxypropan-2-yl)cyclohexyl]-4-(6-vinylfuro[3,2-c]pyridin-4-yl)benzamide], for which the IC50 was determined as 169 nM.

Consider `CCc1cc2occc2c(-c2ccc(C(=O)N[C@H]3CC[C@H](C(C)(C)O)CC3)cc2)n1` [Example 314, 4-(6-ethylfuro[3,2-c]pyridin-4-yl)-N-[trans-4-(2-hydroxypropan-2-yl)cyclohexyl]benzamide], for which the IC50 amounted to 70 nM.

As for `CC(C)(O)[C@H]1CC[C@H](NC(=O)c2ccc(-c3nc(N)cc4occc34)cc2)CC1` [Example 315, 4-(6-aminofuro[3,2-c]pyridin-4-yl)-N-[trans-4-(2-hydroxypropan-2-yl)cyclohexyl]benzamide], the IC50 is 2.6 nM.

Regarding `CC(C)(O)[C@H]1CC[C@H](NC(=O)c2ccc(-c3nc(F)cc4occc34)cc2)CC1` [Example 316, 4-(6-fluorofuro[3,2-c]pyridin-4-yl)-N-[trans-4-(2-hydroxypropan-2-yl)cyclohexyl]benzamide], the IC50 turned out to be 1.5 nM.

For the compound `CC(C)(O)[C@H]1CC[C@H](NC(=O)c2ccc(-c3nc(C#N)cc4occc34)cc2)CC1` [Example 317, 4-(6-cyanofuro[3,2-c]pyridin-4-yl)-N-[trans-4-(2-hydroxypropan-2-yl)cyclohexyl]benzamide], the IC50 was found to be 51 nM.

Regarding `CC(C)(O)[C@H]1CC[C@H](NC(=O)c2ccc(-c3nc(C(N)=O)cc4occc34)cc2)CC1` [Example 318, 4-(4-{[trans-4-(2-hydroxypropan-2-yl)cyclohexyl]carbamoyl}phenyl)furo[3,2-c]pyridine-6-carboxamide], the half-inhibitory concentration (IC50) stood at 367 nM.

On to `CC(C)(O)[C@H]1CC[C@H](NC(=O)c2ccc(-c3nc(CO)cc4occc34)cc2)CC1` [Example 319, 4-[6-(hydroxymethyl)furo[3,2-c]pyridin-4-yl]-N-[trans-4-(2-hydroxypropan-2-yl)cyclohexyl]benzamide], for which the IC50 was found to be 1.6 nM.

Consider `[2H]C([2H])(O)c1cc2occc2c(-c2ccc(C(=O)N[C@H]3CC[C@H](C(C)(C)O)CC3)cc2)n1` [Example 320, 4-[6-(hydroxymethyl-d2)furo[3,2-c]pyridin-4-yl]-N-[trans-4-(2-hydroxypropan-2-yl)cyclohexyl]benzamide], for which the IC50 was 0.9 nM.

Turning to `Cc1cc2occc2c(-c2ccc(C(=O)N[C@H]3CC[C@H](C(C)(C)O)CC3)cc2F)n1` [Example 321, 3-fluoro-N-[trans-4-(2-hydroxypropan-2-yl)cyclohexyl]-4-(6-methylfuro[3,2-c]pyridin-4-yl)benzamide], the IC50 was determined as 5.5 nM.

In the case of `CC(C)(O)[C@H]1CC[C@H](NC(=O)c2ccc(-c3nc(CO)cc4occc34)c(F)c2)CC1` [Example 322, 3-fluoro-4-[6-(hydroxymethyl)furo[3,2-c]pyridin-4-yl]-N-[trans-4-(2-hydroxypropan-2-yl)cyclohexyl]benzamide], the IC50 stood at 3.2 nM.

With `Cn1nnnc1N1CCC(NC(=O)c2ccc(-c3nccc4occc34)c(F)c2)CC1` [Example 323, 3-fluoro-4-(furo[3,2-c]pyridin-4-yl)-N-[1-(1-methyl-1H-tetrazol-5-yl)piperidin-4-yl]benzamide], the IC50 was 1.1 nM.

In the case of `O=C(NC1CCN(C(=O)C2CC2)CC1)c1ccc(-c2nccc3occc23)c(F)c1` [Example 324, N-[1-(cyclopropanecarbonyl)piperidin-4-yl]-3-fluoro-4-(furo[3,2-c]pyridin-4-yl)benzamide], the IC50 was 1.3 nM.

Turning to `O=C(N[C@H]1CC[C@H](O)CC1)c1ccc(-c2nccc3occc23)c(F)c1` [Example 325, 3-fluoro-4-(furo[3,2-c]pyridin-4-yl)-N-(trans-4-hydroxycyclohexyl)benzamide], the IC50 is 2.3 nM.
